In ChEMBL document CHEMBL6071176, “Development of Phloroglucinol-Linked Tris-Quaternary Ammonium Salt Antimicrobial Peptide Mimics with Low Cytotoxicity and Broad-Spectrum Antibacterial Activity” (J Med Chem, 2024):
Active and inactive are the calls of the source. The calls are words filed in the database; no cut-off is given here.

What was measured:
Staphylococcus aureus [1] = assay: Antimicrobial activity against Staphylococcus aureus assessed as inhibition of growth incubated for 18 hrs by CLSI guidelines based assay; type: functional
Escherichia coli [2] = assay: Antimicrobial activity against Escherichia coli assessed as inhibition of growth incubated for 18 hrs by CLSI guidelines based assay; type: functional
[3] = Hemolytic activity in sheep red blood cells measured after 1 hr incubation; type: toxicity, cell-based, Ovis aries, Erythrocyte
[4] = Selectivity index, ratio of HC50 for sheep red blood cells to MIC for Staphylococcus aureus; type: toxicity, cell-based, RBC; conditions: read-out: Selectivity Index
[5] = Cytotoxicity against human Gastric mucosal cells measured after 24 hrs by CCK-8 assay; type: toxicity, cell-based, Gastric mucosal cell
Staphylococcus aureus [6] = assay: Antibacterial activity against methicillin-resistant Staphylococcus aureus assessed as inhibition of bacterial growth incubated for 18 hrs by CLSI guidelines based assay; type: functional
Staphylococcus aureus [7] = assay: Antibacterial activity against NDM-1 gene-resistant Staphylococcus aureus assessed as inhibition of bacterial growth incubated for 18 hrs by CLSI guidelines based assay; type: functional
Staphylococcus aureus [8] = assay: Antibacterial activity against methicillin-resistant Staphylococcus aureus assessed as inhibition of bacterial growth measured after 3 hrs in presence of plasma; type: functional, organism-based
Staphylococcus aureus [9] = assay: Antibacterial activity against methicillin-resistant Staphylococcus aureus assessed as inhibition of bacterial growth measured after 6 hrs in presence of plasma; type: functional, organism-based
Staphylococcus aureus [10] = assay: Bactericidal activity against Staphylococcus aureus assessed as bacterial killing in presence of Mueller-Hinton broth; type: functional, organism-based
Staphylococcus aureus [11] = assay: Bactericidal activity against Staphylococcus aureus assessed as bacterial killing in presence of 50% serum; type: functional, organism-based
Staphylococcus aureus [12] = assay: Bactericidal activity against early exponential phase Staphylococcus aureus assessed as bacterial killing at 3 ug/ml incubated for 4 hrs by time-kill assay; type: functional, organism-based; conditions: dose 3.0 µg/ml
Staphylococcus aureus [13] = assay: Bactericidal activity against early exponential phase Staphylococcus aureus assessed as bacterial killing at 3 ug/ml incubated for 12 hrs by time-kill assay; type: functional, organism-based; conditions: dose 3.0 µg/ml
Escherichia coli [14] = assay: Bactericidal activity against early exponential phase Escherichia coli assessed as bacterial killing at 3 ug/ml incubated for 6 hrs by time-kill assay; type: functional, organism-based; conditions: dose 3.0 µg/ml
Escherichia coli [15] = assay: Bactericidal activity against early exponential phase Escherichia coli assessed as bacterial killing at 3 ug/ml incubated for 12 hrs by time-kill assay; type: functional, organism-based; conditions: dose 3.0 µg/ml
Staphylococcus aureus [16] = assay: Resistance development in Staphylococcus aureus assessed as increase in MIC measured within 20 passages of continues culture; type: functional
Escherichia coli [17] = assay: Resistance development in Escherichia coli assessed as increase in MIC measured within 20 passages of continues culture; type: functional
Staphylococcus aureus [18] = assay: Anti-biofilim activity against Staphylococcus aureus biofilm assessed bacterial survival rate at 16 ug/ml measured after 24 hrs incubation; type: functional
Staphylococcus aureus [19] = assay: Anti-bacterial activity against 100 times rifampicin induced persistent cells of Staphylococcus aureus assessed as reduction in persistent cells at 32 times of MIC; type: functional
Cell membrane [20] = assay: Induction of Cytoplasmic membrane depolarization in Staphylococcus aureus assessed as increase in fluorescence intensity measured at 6 times of MIC measured after 4 hrs by DiSC3(5) dye-based fluorescence assay; type: subcellular
Staphylococcus aureus [21] = assay: Anti-microbial activity against Staphylococcus aureus assessed as bacterial growth inhibition in presence of 0.5 to […] ug/ml PG (exogenous bacterial cell membrane component) measured after 18 hrs; type: functional, organism-based
Staphylococcus aureus [22] = assay: Anti-microbial activity against Staphylococcus aureus assessed as bacterial growth inhibition in presence of CL (exogenous bacterial cell membrane component) measured after 18 hrs; type: functional, organism-based
Staphylococcus aureus [23] = assay: Anti-microbial activity against Staphylococcus aureus assessed as bacterial growth inhibition in presence of LPS (exogenous bacterial cell membrane component) measured after 18 hrs; type: functional, organism-based
Cell membrane [24] = assay: Induction of membrane damage in Escherichia coli assessed as nucleic acid leakage measured at 0.5 to 2 times of MIC by microplate spectrophotometry; type: subcellular; conditions: TDE = time-dependent effect
Staphylococcus aureus [25] = assay: Induction of ROS level in Staphylococcus aureus assessed as increase in intracellular ROS level at 0.125 to 0.5 ug/ml measured after 4.5 hrs by ROS-sensitive fluorescent probe DCF-DA staining based assay; type: functional, organism-based; conditions: dose 0.125-0.5 µg/ml
Staphylococcus aureus [26] = assay: Induction of morphological changes in Staphylococcus aureus assessed as wrinkled/cracked surface at 4 ug/ml incubated for 4 hrs by Scanning electron microscopy (SEM); type: functional, organism-based; conditions: dose 4.0 µg/ml
Staphylococcus aureus [27] = assay: Up-regulation of riboflavin metabolic pathway genes in Staphylococcus aureus at 0.25 ug/ml and incubated for 4 hrs by Transcriptome analysis; type: functional, organism-based; conditions: dose 0.25 µg/ml
Staphylococcus aureus [28] = assay: Up-regulation of quorum sensing pathway genes in Staphylococcus aureus at 0.25 ug/ml and incubated for 4 hrs by Transcriptome analysis; type: functional, organism-based; conditions: dose 0.25 µg/ml
Staphylococcus aureus [29] = assay: Down-regulation of pyrimidine metabolic pathway genes in Staphylococcus aureus at 0.25 ug/ml and incubated for 4 hrs by Transcriptome analysis; type: functional, organism-based; conditions: dose 0.25 µg/ml
Staphylococcus aureus [30] = assay: Down-regulation of aspartate/ornithine carbamoyltransferase in Staphylococcus aureus at 0.25 ug/ml and incubated for 4 hrs by Transcriptome analysis; type: functional, organism-based; conditions: dose 0.25 µg/ml
Staphylococcus aureus [31] = assay: Down-regulation of pyridoxal-phosphate-dependent enzyme in Staphylococcus aureus at 0.25 ug/ml and incubated for 4 hrs by Transcriptome analysis; type: functional, organism-based; conditions: dose 0.25 µg/ml
Staphylococcus aureus [32] = assay: Down-regulation of thiamine pyrophosphate enzyme in Staphylococcus aureus at 0.25 ug/ml and incubated for 4 hrs by Transcriptome analysis; type: functional, organism-based; conditions: dose 0.25 µg/ml
Staphylococcus aureus [33] = assay: Down-regulation of N-terminal TPP binding domain in Staphylococcus aureus at 0.25 ug/ml and incubated for 4 hrs by Transcriptome analysis; type: functional, organism-based; conditions: dose 0.25 µg/ml
[34] = Cytotoxicity against human Gastric mucosal cells measured assessed as cell morphology at 32 ug/ml measured after 24 hrs by Electron scanning microscopy; type: toxicity, cell-based; conditions: dose 32 µg/ml
[35] = Toxicity in female SPF Kunming mouse assessed as pathological changes in liver at 200 mg/kg/day, sc measured after 24 hrs by hematoxylin and eosin staining based assay; type: organism-based; conditions: in vivo
[36] = Toxicity in female SPF Kunming mouse assessed as pathological changes in spleen at 200 mg/kg/day, sc measured after 24 hrs by hematoxylin and eosin staining based assay; type: organism-based; conditions: in vivo
[37] = Toxicity in female SPF Kunming mouse assessed as change in WBC count at 20 mg/kg/day, ip measured after 24 hrs; type: organism-based; conditions: in vivo
[38] = Toxicity in female SPF Kunming mouse assessed as change in HCT count at 20 mg/kg/day, ip measured after 24 hrs; type: organism-based; conditions: in vivo
[39] = Toxicity in female SPF Kunming mouse assessed as change in RBC count at 20 mg/kg/day, ip measured after 24 hrs; type: organism-based; conditions: in vivo
[40] = Toxicity in female SPF Kunming mouse assessed as change in PLT count at 20 mg/kg/day, ip measured after 24 hrs; type: organism-based; conditions: in vivo
[41] = Toxicity in female SPF Kunming mouse assessed as change in HBG count at 20 mg/kg/day, ip measured after 24 hrs; type: organism-based; conditions: in vivo
[42] = Toxicity in female SPF Kunming mouse assessed as change in ALB level at 20 mg/kg/day, ip measured after 24 hrs; type: organism-based; conditions: in vivo
Staphylococcus aureus [43] = assay: (§1) In vivo antibacterial activity against methicillin-resistant Staphylococcus aureus subcutaneously infected in SPF female Kunming mouse model assessed as reduction wound at 5 mg/kg/day injected into blister after 6 hrs of infection measured after 6 consecutive treatments; type: functional
Staphylococcus aureus [44] = assay: as §1, with “improvement in inflammatory cell infiltration in skin” for “reduction wound”, “5 to 10” for “5”, “treatments by H and E staining based assay” for “treatments”; type: functional, organism-based; conditions: dose 5-10 mg/kg/day, route iv

Structure (SMILES): CCCCCCCC[N+](C)(C)CCCCOc1cc(OCCCC[N+](C)(C)CCCCCCCC)cc(OCCCC[N+](C)(C)CCCCCCCC)c1.[Br-].[Br-].[Br-]
- MIC (Staphylococcus aureus [1]): 0.5 µg/mL
- MIC (Escherichia coli [2]): 2 µg/mL
- HC50 at 1 h [3]: > 1280 µg/mL
- selectivity ratio [4]: > 2560
- CC50 at 24 h [5]: < 153 µg/mL
- MIC50 (Staphylococcus aureus [6]): 1 µg/mL
- MIC90 (Staphylococcus aureus [6]): ≥ 16 µg/mL
- MIC90 (Staphylococcus aureus [7]): 2 µg/mL
- Activity (Staphylococcus aureus [8]): Active
- Activity (Staphylococcus aureus [9]): Active
- Activity (Staphylococcus aureus [10]): Active
- Activity (Staphylococcus aureus [11]): Active
- Activity (Staphylococcus aureus [12]): Active
- Activity (Staphylococcus aureus [13]): Active
- Activity (Escherichia coli [14]): Active
- Activity (Escherichia coli [15]): Active
- MIC (Staphylococcus aureus [16]): 0.5 µg/mL
- MIC (Escherichia coli [17]): 1 µg/mL
- survival at 16 µg/mL (Staphylococcus aureus [18]): 0.01%
- Activity (Staphylococcus aureus [19]): 5.7 log10CFU/ml
- Activity (Cell membrane [20]): Active
- Activity (Staphylococcus aureus [21]): inactive
- Activity (Staphylococcus aureus [22]): Active
- Activity (Staphylococcus aureus [23]): inactive
- Activity (Cell membrane [24]): Tde
- Activity (Staphylococcus aureus [25]): Active
- Activity (Staphylococcus aureus [26]): Active
- Activity (Staphylococcus aureus [27]): Active
- Activity (Staphylococcus aureus [28]): Active
- Activity (Staphylococcus aureus [29]): Active
- Activity (Staphylococcus aureus [30]): Active
- Activity (Staphylococcus aureus [31]): Active
- Activity (Staphylococcus aureus [32]): Active
- Activity (Staphylococcus aureus [33]): Active
- Activity [34]: Non-Toxic
- Activity [35]: Non-Toxic
- Activity [36]: Non-Toxic
- Activity [37]: Non-Toxic
- Activity [38]: Non-Toxic
- Activity [39]: Non-Toxic
- Activity [40]: Non-Toxic
- Activity [41]: Non-Toxic
- Activity [42]: Non-Toxic
- Activity (Staphylococcus aureus [43]): 251188.6 CFU
- Activity (Staphylococcus aureus [44]): Active
